One data set concerns Candida tropicalis. Further details: method as in PMID 26428920. The note with it: cited from earlier work.
Data set [1] in a line: Identification of violacein metabolites in RLMs by LC-QTOF. The data set is classed as in vitro ADME, rat. The settings on record: all samples after 120 min of reaction, 105 µM violacein, 5 mg/mL protein. How it is done: The metabolism of violacein was investigated using HLMs and RLMs, by incubating the samples for 120 min under four conditions (n = 1): zero sample, phase I-only incubation, phase I and II incubation, and phase II-only incubation, as described by Godoi et al..
For all samples, 25 µL of the 843 µM violacein stock solution was added to propylene tubes and evaporated to dryness under a nitrogen stream. The dried residue was then reconstituted with 2 µL of methanol, ensuring that the final organic solvent concentration remained below 1% to minimize any potential impact on microsomal activity, as described by Jia et al..
To assess phase I metabolism, 148 μL of an NADPH-regenerating system containing 1.1 mM NADP+, 10 mM glucose-6-phosphate, 1 U/mL glucose-6-phosphate dehydrogenase, 5 mM sodium citrate, and 66 mM magnesium chloride in 100 mM phosphate buffer (pH 7.4) were added to the tubes. The solutions were pre-incubated for 5 min at 37 °C and 300 rpm in an MTC 100 thermo shaker incubator, and metabolic reactions were initiated by adding 50 μL of HLMs or RLMs (20 mg/mL), to yield final concentrations of 105 µM violacein and 5 mg of microsomal protein/mL. […]
The acquired chromatograms and mass spectra were analyzed using Insight Explore software version 1.0.0.0 (Shimadzu, Kyoto, Japan). […]

In brackets after ≈: the same amount, converted by molar mass.

As for `O=C1NC(c2c[nH]c3ccc(O)cc23)=C/C1=C1\C(=O)Nc2ccccc21` [violacein], the MIC (usually the lowest concentration found to suppress growth) with Candida tropicalis is 16 µg/mL (≈ 46.6 µM). Also, in data set [1], the Violacein metabolized entry is “Approximately 50%”.

(Values after paper PMC12114947, “Evaluation of Violacein Metabolic Stability and Metabolite Identification in Human, Mouse, and Rat Liver Microsomes” (Pharmaceutics, 2025).)
